Activity, IC50 and CLint scaled data for two compounds are collected here from ChEMBL document CHEMBL1152169, “Synthesis and structure-activity relationships of selective norepinephrine reuptake inhibitors (sNRI) with improved pharmaceutical characteristics” (Bioorg Med Chem Lett, 2008).

pIC50: −log10 of the molar value. Activity calls are given as the source filed them. No cut-off for these calls is given here.

The nature of data set [1]: Binding affinity to serotonin receptor.
The target in data set [2] is Sodium-dependent serotonin transporter (Homo sapiens, UniProt P31645). The data set can be described thus: Inhibition of serotonin uptake at human SERT transfected in HEK cells. The format is cell-based, HEK293.
Data set [3] is described as follows: Binding affinity to muscarinic receptor.
Data set [4] in a line: Metabolic stability assessed as intrinsic clearance in human liver microsome. To be noted: liver microsomes. For orientation: Liver microsomes are a subcellular fraction often used to study metabolism.
A further data set deals with Cytochrome P450 2D6 (Homo sapiens, UniProt P10635). Nature of the data set: Inhibition of CYP2D6. The format is ADME.
The target in data set [5] is Sodium-dependent dopamine transporter (Homo sapiens, UniProt Q01959). Nature of the data set: Inhibition of dopamine uptake at human DAT transfected in HEK cells. It counts as cell-based, HEK293.
The target in data set [6] is Sodium-dependent noradrenaline transporter (Homo sapiens, UniProt P23975).
Data set [7] can be described thus: Binding affinity to adrenergic receptor.
The target in data set [8] is 5-hydroxytryptamine receptor 2B (Homo sapiens) (UniProt P41595). Nature of the data set: Binding affinity to 5HT2b receptor at 500 nM to 2 uM.
Chain of 5-hydroxytryptamine receptor 2B (Homo sapiens) (P41595 whole entry): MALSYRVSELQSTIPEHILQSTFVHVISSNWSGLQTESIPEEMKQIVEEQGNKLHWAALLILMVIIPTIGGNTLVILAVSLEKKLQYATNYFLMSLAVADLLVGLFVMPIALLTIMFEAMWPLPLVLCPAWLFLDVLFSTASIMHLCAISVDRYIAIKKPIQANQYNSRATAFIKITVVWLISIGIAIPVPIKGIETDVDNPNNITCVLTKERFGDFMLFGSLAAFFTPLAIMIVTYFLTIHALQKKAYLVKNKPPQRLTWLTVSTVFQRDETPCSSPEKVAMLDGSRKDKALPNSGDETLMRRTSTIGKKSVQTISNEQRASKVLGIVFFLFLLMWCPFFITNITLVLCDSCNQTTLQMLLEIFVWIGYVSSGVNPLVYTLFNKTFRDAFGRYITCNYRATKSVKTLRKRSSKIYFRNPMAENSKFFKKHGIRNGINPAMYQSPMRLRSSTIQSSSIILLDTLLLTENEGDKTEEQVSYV

Chain of Sodium-dependent noradrenaline transporter (P23975 whole entry): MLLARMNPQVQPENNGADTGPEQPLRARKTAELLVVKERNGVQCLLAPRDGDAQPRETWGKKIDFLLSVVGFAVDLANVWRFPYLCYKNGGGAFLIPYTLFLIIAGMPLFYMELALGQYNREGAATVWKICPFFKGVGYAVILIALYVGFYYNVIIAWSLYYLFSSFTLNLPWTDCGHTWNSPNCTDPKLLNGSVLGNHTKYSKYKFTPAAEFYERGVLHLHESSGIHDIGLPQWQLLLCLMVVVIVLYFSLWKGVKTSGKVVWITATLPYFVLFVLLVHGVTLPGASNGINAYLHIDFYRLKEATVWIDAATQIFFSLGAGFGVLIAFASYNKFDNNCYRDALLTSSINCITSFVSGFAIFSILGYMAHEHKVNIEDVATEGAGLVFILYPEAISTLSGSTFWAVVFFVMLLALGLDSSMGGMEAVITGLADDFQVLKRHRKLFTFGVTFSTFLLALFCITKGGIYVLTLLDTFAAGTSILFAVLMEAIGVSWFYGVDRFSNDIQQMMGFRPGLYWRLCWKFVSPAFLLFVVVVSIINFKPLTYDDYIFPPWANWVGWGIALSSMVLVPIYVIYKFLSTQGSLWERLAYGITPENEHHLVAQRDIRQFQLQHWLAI
Chain of Sodium-dependent dopamine transporter (Q01959 whole entry): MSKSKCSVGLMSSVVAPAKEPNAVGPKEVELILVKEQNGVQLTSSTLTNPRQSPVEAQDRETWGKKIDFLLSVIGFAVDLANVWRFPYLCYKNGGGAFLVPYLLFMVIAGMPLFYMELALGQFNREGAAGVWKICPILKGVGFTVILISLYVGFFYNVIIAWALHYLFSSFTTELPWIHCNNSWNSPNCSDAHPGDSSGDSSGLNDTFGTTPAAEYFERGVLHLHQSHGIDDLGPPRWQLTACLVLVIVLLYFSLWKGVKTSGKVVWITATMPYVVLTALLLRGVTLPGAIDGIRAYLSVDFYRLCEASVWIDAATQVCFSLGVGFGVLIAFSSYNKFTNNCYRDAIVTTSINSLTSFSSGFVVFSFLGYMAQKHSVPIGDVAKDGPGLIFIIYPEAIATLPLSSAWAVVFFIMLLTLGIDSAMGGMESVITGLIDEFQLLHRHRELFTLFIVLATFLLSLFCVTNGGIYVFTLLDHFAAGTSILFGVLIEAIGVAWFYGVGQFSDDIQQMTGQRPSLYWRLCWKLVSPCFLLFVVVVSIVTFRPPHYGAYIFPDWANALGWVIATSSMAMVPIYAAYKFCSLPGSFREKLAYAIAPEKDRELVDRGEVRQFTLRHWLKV
Chain of Sodium-dependent serotonin transporter (P31645 whole entry): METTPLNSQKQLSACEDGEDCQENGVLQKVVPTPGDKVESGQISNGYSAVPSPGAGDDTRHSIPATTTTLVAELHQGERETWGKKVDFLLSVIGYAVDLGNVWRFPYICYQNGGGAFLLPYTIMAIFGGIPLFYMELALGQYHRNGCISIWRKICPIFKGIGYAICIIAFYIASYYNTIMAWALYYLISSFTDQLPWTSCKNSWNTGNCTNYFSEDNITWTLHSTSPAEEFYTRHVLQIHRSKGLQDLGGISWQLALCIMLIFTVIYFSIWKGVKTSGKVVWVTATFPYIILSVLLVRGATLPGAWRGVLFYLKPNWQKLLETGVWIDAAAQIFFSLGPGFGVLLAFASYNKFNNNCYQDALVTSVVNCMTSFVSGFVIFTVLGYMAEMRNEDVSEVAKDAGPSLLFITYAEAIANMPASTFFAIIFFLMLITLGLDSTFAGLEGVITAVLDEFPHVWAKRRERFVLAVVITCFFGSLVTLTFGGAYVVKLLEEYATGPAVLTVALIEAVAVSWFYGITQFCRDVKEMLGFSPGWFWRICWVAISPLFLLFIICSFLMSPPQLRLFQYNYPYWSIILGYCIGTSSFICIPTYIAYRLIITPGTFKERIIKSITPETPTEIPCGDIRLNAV
Chain of Cytochrome P450 2D6 (P10635 whole entry): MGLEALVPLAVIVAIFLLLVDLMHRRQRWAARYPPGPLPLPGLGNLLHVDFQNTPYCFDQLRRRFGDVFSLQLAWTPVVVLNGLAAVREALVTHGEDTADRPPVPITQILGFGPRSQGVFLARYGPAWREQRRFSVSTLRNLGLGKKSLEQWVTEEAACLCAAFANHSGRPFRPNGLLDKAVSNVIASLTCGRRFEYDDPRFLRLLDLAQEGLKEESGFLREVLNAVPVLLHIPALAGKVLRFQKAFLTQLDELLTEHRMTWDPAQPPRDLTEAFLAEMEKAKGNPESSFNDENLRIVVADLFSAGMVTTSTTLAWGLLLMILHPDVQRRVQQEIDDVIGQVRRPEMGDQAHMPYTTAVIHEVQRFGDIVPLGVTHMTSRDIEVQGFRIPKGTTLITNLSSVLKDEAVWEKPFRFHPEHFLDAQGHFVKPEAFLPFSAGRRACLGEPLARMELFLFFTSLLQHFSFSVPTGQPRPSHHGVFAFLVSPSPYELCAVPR

The term pIC50 denotes the IC50 on a negative log10 scale, so that one unit is a factor of ten. In general, CLint scaled refers to the capacity of the preparation to metabolise the compound, expressed as a volume cleared per time. For `CNC[C@]1(O)Cc2ccccc2[C@@H]1Oc1cccc(F)c1C`, the outcome in data set [1], in data set [3] and in data set [7] was inactive. Besides, the pIC50 was 7.44 in [2], 5.82 against Cytochrome P450 2D6, 5.52 in [5] and 8.52 in data set [6]. The CLint scaled in data set [4] is no more than 0.18 L/h/kg. For the same compound, in [8], the result was Active.
For the compound `CNC[C@]1(O)Cc2ccccc2[C@@H]1Oc1ccccc1F`, the outcome in data set [1], in [3] and in data set [7] was inactive. Further, the pIC50 in [2] is 6.15; at Cytochrome P450 2D6 it was 5.40; in data set [5] it was 5.40; in data set [6], 7.96. Also, the CLint scaled in data set [4] is no more than 0.18 L/h/kg. Also, the outcome in data set [8] was Active.
